Test results published in the supplement of paper PMC10307832.

How the values were obtained:
Experiment in all cases: relative viability (nuclei count vs DMSO), 5 days (fraction); higher = more cells survive
[1] = compound: CC1(COc2ccc3c(c2)ncn3-c2ccc3cccc(N4CCC(N)CC4)c3n2)COC1 [Crenolanib] + CS(=O)(=O)CCNCc1ccc(-c2ccc3ncnc(Nc4ccc(OCc5cccc(F)c5)c(Cl)c4)c3c2)o1 [Lapatinib] (partner 2 µM)
Summary of the method: (§1)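 Lung cancer cell lines, seeded in 1536-well plates, were treated the following day by pin tool with a single drug or with five library-drug doses (not always all listed) in √10 steps on top of a fixed anchor-drug dose. Cells were fixed and nuclei stained in one step after 5 days, and nuclei were counted. Relative viability is the nuclei count for treated wells divided by that for vehicle wells, reported as medians of duplicate plates.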

[2] = compound: CC1(COc2ccc3c(c2)ncn3-c2ccc3cccc(N4CCC(N)CC4)c3n2)COC1 [Crenolanib] + O=C(c1cc(Cc2n[nH]c(=O)c3ccccc23)ccc1F)N1CCN(C(=O)C2CC2)CC1 [Olaparib] (partner 8 µM)
Summary of the method: as §1

[3] = compound: O=C1NC(=O)[C@@H](c2cn3c4c(cccc24)CCC3)[C@@H]1c1c[nH]c2ccccc12 [Tivantinib] + Cc1cc(Nc2cc(N3CCN(C)CC3)nc(Sc3ccc(NC(=O)C4CC4)cc3)n2)n[nH]1 [Tozasertib] (partner 0.1 µM)
Summary of the method: as §1

[4] = compound: O=C1NC(=O)[C@@H](c2cn3c4c(cccc24)CCC3)[C@@H]1c1c[nH]c2ccccc12 [Tivantinib] + Nc1ncn([C@H]2C[C@H](O)[C@@H](CO)O2)c(=O)n1 [Decitabine] (partner 2 µM)
Summary of the method: as §1

Cell Line	relative viability ([1]; first compound 0.01 µM)	relative viability ([1]; first compound 0.03162 µM)	relative viability ([1]; first compound 0.1 µM)	relative viability ([1]; first compound 0.3162 µM)	relative viability ([1]; first compound 1 µM)	relative viability ([2]; first compound 0.01 µM)	relative viability ([2]; first compound 0.03162 µM)	relative viability ([2]; first compound 0.1 µM)	relative viability ([2]; first compound 0.3162 µM)	relative viability ([2]; first compound 1 µM)	relative viability ([3]; first compound 0.01 µM)	relative viability ([3]; first compound 0.03162 µM)	relative viability ([3]; first compound 0.1 µM)	relative viability ([3]; first compound 0.3162 µM)	relative viability ([4]; first compound 0.01 µM)	relative viability ([4]; first compound 0.03162 µM)	relative viability ([4]; first compound 0.1 µM)	relative viability ([4]; first compound 0.3162 µM)
NCI-H358	0.468	0.461	0.44	0.45	0.312	0.641	0.594	0.529	0.678	0.603	0.109	0.0982	0.0902	0.0802	0.212	0.227	0.189	0.145
NCI-H460	0.997	1	1.04	1.46	1.01	0.445	0.366	0.405	0.438	0.415	0.405	0.31	0.368	0.299	0.496	0.499	0.427	0.458
NCI-H520	0.664	0.848	0.88	0.85	0.778	0.367	0.258	0.33	0.288	0.338	0.471	0.494	0.395	0.434	0.462	0.454	0.46	0.436
NCI-H596	0.947	1.09	0.89	1.14	1.18	0.731	0.806	0.68	0.64	0.681	1.05	0.819	0.929	0.799	1.12	1.07	1.01	1.12
NCI-H647	1.04	0.996	1.05	1.16	1.08	0.477	0.512	0.511	0.802	0.586	0.38	0.265	0.306	0.137	0.437	0.305	0.381	0.357
NCI-H650	0.83	1.15	0.884	0.841	0.655	0.4	0.379	0.343	0.339	0.325	0.857	0.61	0.802	0.585	0.355	0.287	0.315	0.327
NCI-H661	0.493	0.547	0.47	0.451	0.468	0.719	0.803	0.681	0.811	0.81	0.365	0.363	0.354	0.356	0.565	0.542	0.558	0.398
NCI-H727	0.936	0.662	0.752	0.856	0.686	0.678	0.652	0.646	0.627	0.847	0.641	0.558	0.463	0.515	0.748	0.924	0.882	–
NCI-H838	1.07	0.966	0.993	1.02	0.805	0.828	0.776	0.735	0.855	0.635	0.26	0.273	0.262	0.322	0.446	0.48	0.428	0.442
NCI-H1355	1.02	1.04	0.999	1.15	0.78	0.812	0.817	0.739	0.784	0.651	0.561	0.488	0.541	0.489	0.377	0.316	0.342	0.381
NCI-H1395	1.02	1.06	0.915	0.942	0.971	0.495	0.453	0.543	0.439	0.45	0.76	0.747	0.718	0.689	0.736	0.665	0.845	0.713
NCI-H1437	0.751	0.762	0.808	0.873	0.688	0.632	0.636	0.621	0.647	0.591	0.426	0.386	0.391	0.422	0.57	0.568	0.497	0.545
NCI-H1650	0.799	0.918	0.783	0.719	0.512	0.677	0.84	0.659	0.82	0.607	0.411	0.467	0.357	0.434	0.406	0.389	0.416	0.413
NCI-H1651	0.83	0.979	0.9	0.945	0.767	0.177	0.186	0.198	0.171	0.166	0.617	0.678	0.672	0.71	0.592	0.659	0.608	0.583
NCI-H1666	0.772	0.579	0.799	0.872	0.509	0.764	0.717	0.723	0.692	0.749	0.624	0.612	0.606	0.526	0.745	0.684	0.748	0.747
NCI-H1734	1	1.08	0.995	1.27	0.937	0.617	0.676	0.568	0.7	0.605	0.273	0.278	0.252	0.247	0.532	0.487	0.506	0.427
NCI-H1755	1.02	1.08	0.987	1.12	0.967	0.919	0.801	0.845	0.898	0.848	0.525	0.602	0.507	0.608	0.727	0.67	0.725	0.765
NCI-H1793	0.767	0.799	0.475	0.855	0.645	0.993	0.947	0.889	1.13	0.762	0.427	0.329	0.353	0.222	0.502	0.497	0.495	0.404
